Values joined by “and” are separate entries in the source; they are usually repeats but may differ in a detail not shown here. Equal entries are not always repeated.

For one experiment, the target named is T1, Human P2Y1-R (Homo sapiens, UniProt P47900).
T1 construct: expressed in transfected cells; host or cells: HEK293T/17
Briefly: Gαq protein activation BRET2 assay (Gαq-RLuc8/GFP2-Gγ2/Gβ1) in HEK293T cells expressing P2Y1-R. The experiment is classed as cell-based. Further details: ADP-modulated BRET / MRS2179-modulated BRET: unit not given here. Conditions: for G protein signaling, Ligand-modulated BRET (% of maximum MRS2179 mean value): Figure 4a, individual replicates. The text has this: As previously described, using a BRET^2 (bioluminescence resonance energy transfer)-based assay, we directly monitored the basal Gαq protein activation by measuring the interaction between Gαq and Gγ2 subunits of the Gαqβ1γ2 heterotrimer complex. Indeed, this assay is based on the non-radiative transfer between the Renilla reniformis luciferase (RLuc8) energy donor fused to the Gαq protein subunit and the fluorescent GFP2 energy acceptor fused to Gγ2 protein subunit (Fig. 1a). […] By contrast, ligand-independent constitutive receptor activation or agonist-induced receptor activation will promote Gαq/Gγ2 subunit dissociation, thereby leading to a decrease of the basal BRET signal (Fig. 1a). […] To preclude any P2Y1-R activation by a passive release of ADP by HEK293T cells, we performed similar experiments in the presence of high concentration of apyrase (0.2U/mL) to degrade any trace of ADP in the medium (Additional File 2: Fig. S2a). Under these conditions, P2Y1-R expression still induces a marked and significant decrease of the basal BRET signal compared to control cells (pcDNA3.1), thereby supporting a P2Y1-R-dependent constitutive activation of Gαq protein. […] Of note, because P2Y1-R and AT1-R were respectively Myc- and HA-tagged and were thus detected using different primary antibodies, their expression at the cell surface cannot be compared between each other’s.
Human P2Y1-R (NCBI Reference Sequence: NM_002563.2) and P2Y12-R (NCBI Reference Sequence: NM_022788.3) were fused to double Myc epitope and rat AT1-R (NCBI Reference Sequence: NM_030985.4) to HA tag in N-terminus extracellular region. Alternatively, receptors were also fused to Venus tag in C-terminus intracellular region. Plasmids encoding Gαq-RLuc8, GFP2-Gγ2 and untagged Gβ1 were previously described. ADP was purchased from Sigma-Aldrich/Merck (Darmstadt, Germany). […] The Gq inhibitor (FR900359) was kindly supplied by Evi Kostenis (University of Bonn. Germany).
G protein activation and β-arrestin 2 recruitment were performed as previously described. Briefly, vectors encoding receptors, Gαq-RLuc8, GFP2-Gγ2, Gβ1, or β-arrestin 2 were transiently cotransfected into HEK293T/17 cells as indicated in the figure legends. Forty-eight hours after transfection, cells were washed and resuspended in PBS containing 0.1% (w/v) glucose at room temperature and then distributed (80 μg proteins/well) in a 96-well microplate (PerkinElmer). For G protein activation experiments (BRET^2), cells were incubated in the absence (basal BRET signal) or in the presence of ligand for 1 minute. BRET signal between RLuc8 and GFP2 was measured after addition of the luciferase substrate coelenterazine 400a (5 μM). For β-arrestin 2 recruitment (BRET^1), cells were stimulated with ligands for 5 or 15 min. BRET signal was recorded after incubation with coelenterazine h (5 μM) for 8 min. For kinetics studies, BRET signal between RLuc and Venus was recorded at 20-s intervals at basal state for the 2 first minutes and then for 5 min after ligand injection. For saturation curves (BRET^1), the expression level of Venus- or RLuc-tagged protein was determined by direct measurement of total fluorescence and luminescence respectively. Total fluorescence was first measured with an excitation filter at 485 nm and an emission filter at 520 nm. Then, the same sample was incubated for 8 minutes with 5 μM coelenterazine h and the total luminescence was measured. BRET^2 and BRET^1 readings were collected using a modified Infinite F500 (Tecan Group Ltd). The BRET^2 signal was calculated by the ratio of emission of GFP2 (510–540 nm) to RLuc8 (370–450 nm) and the BRET^1 signal by the ratio of emission of Venus (520–570 nm) to RLuc (370–480 nm). […]
(In general: Bioluminescence resonance energy transfer reports proximity on the nanometre scale.)

The subject of experiment [1] is washed human platelets (P2Y1-R/Gαq signaling). Briefly: IP1 accumulation assay (HTRF) in washed human platelets. The experiment is classed as cell-based. Conditions: washed human platelets, ADP 100 μM, antagonists 10 μM, Gq inhibitor 100 nM, 2 h, apyrase 0.02 U/mL, result in words. How it is done: As performed in HEK293T cells, we thus quantified intracellular IP1 levels to monitor Gαq protein-dependent signaling pathways.
Human platelets were prepared from adult healthy volunteers free of antiplatelet or anti-inflammatory medication since at least ten days. […] After two steps of centrifugation and suspension in Tyrode’s buffer (140 mM NaCl, 5 mM KCl, 5 mM KH2PO4, 1 mM MgSO4, 10 mM HEPES, 5 mM glucose and 0.35% (w/v) BSA, pH 6,7), washed platelets were suspended in the same buffer adjusted to pH 7.4 and containing 1 mM CaCl2. The final platelet suspension was adjusted to 3.10^8 platelets/mL and rested for 45 min in the presence of 0.02 U/mL apyrase and 10 μM indomethacin at 37 °C prior experiments. PGI2 (0.5 μM) was added before centrifugation steps to avoid platelet activation.
Quantification of intracellular IP1 was performed using the HTRF (Homogeneous Time Resolved Fluorescence) IP1 competitive immunoassay (IP-One Tb kit. Cisbio. France) according to the manufacturer’s instructions. Briefly, 20,000 HEK293T/17 cells or 3.10^6 platelets were distributed in a 384-well white microplate (Greiner) and incubated with the indicated molecules for 30 min or 2 h at 37 °C in the presence of 50 mM of LiCl to prevent IP1 degradation. After addition of d2-labeled IP1 (acceptor) and anti-IP1-Cryptate (donor) for 1 h, the specific FRET signals were calculated by the fluorescence ratio of the acceptor and donor emission signal (665/620 nm) collected using a modified Infinite F500 (Tecan Group Ltd). Conversion of the HTRF ratio of each sample into IP1 concentrations was performed on the basis of a standard curve to determine the linear dynamic range of the assay.
On the technique in general: In TR-FRET formats the signal depends on donor and acceptor labels being close together.

[2] abbreviates: G protein signaling, Fig. 4a, 1 min.

T1 sequence (P47900 whole entry): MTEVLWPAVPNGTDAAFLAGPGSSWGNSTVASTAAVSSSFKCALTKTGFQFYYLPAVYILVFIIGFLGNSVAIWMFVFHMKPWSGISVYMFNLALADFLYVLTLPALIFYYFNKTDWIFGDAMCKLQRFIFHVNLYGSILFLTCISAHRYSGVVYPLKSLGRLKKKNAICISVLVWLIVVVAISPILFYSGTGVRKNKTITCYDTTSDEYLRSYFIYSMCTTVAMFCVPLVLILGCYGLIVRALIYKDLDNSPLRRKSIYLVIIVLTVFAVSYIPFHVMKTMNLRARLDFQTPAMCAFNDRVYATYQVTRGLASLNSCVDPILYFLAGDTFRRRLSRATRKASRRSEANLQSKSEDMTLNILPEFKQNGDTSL

`CNc1nc(Cl)nc2c1ncn2[C@H]1CC(OP(=O)(O)O)[C@]2(COP(=O)(O)O)C[C@H]12` (stereo in doubt) [MRS2279]: the “G protein signaling, Ligand-modulated BRET (% of maximum MRS2179 mean value)” value was 129.138 % of maximum MRS2179 mean value and 120.304 % of maximum MRS2179 mean value and 127.2 % of maximum MRS2179 mean value and 111.359 % of maximum MRS2179 mean value and 120.336 % of maximum MRS2179 mean value and 114.718 % of maximum MRS2179 mean value at Human P2Y1-R ([Ligand] 1.00E-04 M); 65.0429 % of maximum MRS2179 mean value and 66.0702 % of maximum MRS2179 mean value and 71.1916 % of maximum MRS2179 mean value and 1.991 % of maximum MRS2179 mean value and 5.227 % of maximum MRS2179 mean value and 4.981 % of maximum MRS2179 mean value on Human P2Y1-R ([Ligand] 1.00E-05 M); 0.8906 % of maximum MRS2179 mean value and 4.044 % of maximum MRS2179 mean value and 23.8581 % of maximum MRS2179 mean value and -4.504 % of maximum MRS2179 mean value and -0.009097 % of maximum MRS2179 mean value and -7.368 % of maximum MRS2179 mean value on Human P2Y1-R ([Ligand] 1.00E-06 M); -9.195 % of maximum MRS2179 mean value and -17.2152 % of maximum MRS2179 mean value and -1.434 % of maximum MRS2179 mean value and -4.1872 % of maximum MRS2179 mean value and -11.6872 % of maximum MRS2179 mean value and -13.2576 % of maximum MRS2179 mean value on Human P2Y1-R ([Ligand] 1.00E-07 M); -19.0202 % of maximum MRS2179 mean value and -26.9343 % of maximum MRS2179 mean value and -6.222 % of maximum MRS2179 mean value and 4.642 % of maximum MRS2179 mean value and -7.159 % of maximum MRS2179 mean value and -5.465 % of maximum MRS2179 mean value on Human P2Y1-R ([Ligand] 1.00E-08 M); -11.1827 % of maximum MRS2179 mean value and -20.1662 % of maximum MRS2179 mean value and -5.932 % of maximum MRS2179 mean value and 1.161 % of maximum MRS2179 mean value and -4.3372 % of maximum MRS2179 mean value and -8.802 % of maximum MRS2179 mean value at Human P2Y1-R ([Ligand] 1.00E-09 M). Also, the “G protein signaling, Ligand-modulated BRET (% of maximum MRS2179 mean value)” value at Human P2Y1-R ([Ligand] 1.00E-10 M) was -9.413 % of maximum MRS2179 mean value and -16.1844 % of maximum MRS2179 mean value and -3.46 % of maximum MRS2179 mean value and -2.408 % of maximum MRS2179 mean value and -4.624 % of maximum MRS2179 mean value and -8.503 % of maximum MRS2179 mean value. Further, a half-maximal effect at Human P2Y1-R (setting [2]) (EC50) was put at 26.4 µM. Further, the “pEC50 ± s.e.m.” value on Human P2Y1-R (setting [2]) worked out at 4.579 ± 0.1247. The “Emax ± s.e.m.” value at Human P2Y1-R (G protein signaling, Fig. 4a, 1 min, normalized to the mean value of maximal MRS2179 response, in %) worked out at 154.3 ± 13.86. Besides, the “Behaviour on P2Y1-R-dependent constitutive Gαq protein activation” value on Human P2Y1-R (HEK293T cells, result in words) is given as “behaved as inverse agonists”. Besides, the “Effect on IP1 levels” value in experiment [1] was “inverse agonist efficacy”.

On to `Nc1ncnc2c1ncn2[C@@H]1O[C@H](COP(=O)(O)OP(=O)(O)O)[C@@H](O)[C@H]1O` [ADP, adenosine diphosphate], for which the “ADP-induced change of Gαq/Gγ2 BRET signal” value on Human P2Y1-R (ADP 10 μM, 1 min, result in words) was “significant but moderate decrease of the BRET signal”. For the same compound, on Human P2Y1-R (P2Y1-R, ADP 10 μM, 1 min, individual experiments), the “ADP-modulated BRET” value was -0.02511 and -0.01906 and -0.00821 and -0.04045 and -0.02327 and -0.02843. The “Effect on IP1 levels” value in experiment [1] is given as “significantly increased”.

For orientation: EC50 means the midpoint of the concentration-response curve.

These data come from PMC9890698 (BMC Biology, 2023).
